Source: patent EP0877061A1, “TRIPHENYLBORANE-ROSIN AMINE ADDUCT AND USE OF THE SAME” (Yoshitomi Fine Chemicals, Ltd., priority 1996, dated 1997)

Test system: hydrozoas
Experiment: Experimental Example 1: effect of antifouling agent for a fishnet, nets immersed in the sea off Konbumori in Hokkaido
Format: in vivo
Details: conclusion from Table 3
Description: The antifouling agents for […] shown in Examples 3-10 and Comparative Examples 1 and 2 were respectively applied to Tetoron unknotted nets (1000/26, 3 sun mesh) by immersion and air-dried. The nets were retained at about 15 meters underwater in the sea off Konbumori in Hokkaido for 4 months from August 1995. The adhesion organisms were mostly hydrozoas. As Comparative Example 3, the evaluation results without a treatment with an antifouling agent for a […] shown. • Evaluation A: Area of fouling of […], 0%, no adhesion organisms. • Evaluation B: Area of fouling of […], 0-10%, small amount of adhesion organisms to the extent practically acceptable. • Evaluation C: Area of fouling of […], 10-50%, great amount of adhesion organisms, unpractical as a […]. • Evaluation D: Area of fouling of […], 50% or more, markedly greater amount of adhesion organisms.

## triphenylborane-dehydroabiethylamine adduct [Example 1]
  antifouling effect against coelenterates such as hydrozoas and obelia (in words): extremely strong, long-lasting and practical antifouling effect
